Reference: PMC10138554, “Insights into the Microbicidal, Antibiofilm, Antioxidant and Toxicity Profile of New O-Aryl-Carbamoyl-Oxymino-Fluorene Derivatives” (International Journal of Molecular Sciences, 2023)
≈ marks a conversion by molar mass, not a printed value.

Assays:
E. faecalis ATCC 29212 [1] = experiment: Flow cytometry (FCM) membrane depolarization, DiBAC4(3); type: cell-based; conditions: for staining index value (SI): E. faecalis ATCC 29212, DiBAC4, 18–24 h
Procedure: The investigation of potential mechanisms of antimicrobial action by flow cytometry (FCM) was performed on microbial cultures obtained after 18–24 h of microbial cell incubation in the presence of subinhibitory concentrations of the analyzed compounds. Thus, microbial suspensions with a density of approximately 10^6 CFU/mL were prepared in sterile saline phosphate buffer from exponentially growing microbial cultures, obtained on a solid culture medium. Subinhibitory concentrations of the compounds were prepared in Muller–Hinton liquid culture medium and inoculated with an equal amount of microbial suspension and incubated for 18–24 h at 37 °C.
Microbial suspensions inoculated in a liquid medium were used as growth control. After incubation, the DiBAC4 fluorochrome solution [bis-(1,3-dibutylbarbituric acid) trimethinoxonol] Invitrogen/Life Technologies, Carlsbad, was added (0.5 μg/mL).
Fluorescence intensity (FI) was measured with an Accuri C6 plus flow cytometer in the FITC fluorescence channel. Growth control was used to locate the microbial cell population for fluorescence measurements. DiBAC4 dye was used to detect changes in the microbial membrane potential. […] A twofold increased fluorescence intensity (median fluorescence intensity = MFI) was considered to correspond to the depolarized microbial cells. For each subinhibitory concentration, a coloring index (CI) was calculated which represents the ratio of fluorescence intensity (FI) of treated versus untreated cells.

[2] = In vitro cytotoxicity assay, IncuCyte S3 live-cell analysis; type: cell-based; conditions: human, 72-h period
Procedure: The cytotoxicity of the investigated compounds was tested using the IncuCyte Basic Analysiskit, allowing to calculate the IC50, against three tumoral cell lines, i.e., HeLa (cervical cancer cells), HT29 (colon adenocarcinoma) and MG63 (osteosarcoma). The selected metric of the concentration-response module was set on phase and confluence (%).
In our experiments, we used colorectal adenocarcinoma HT29 (ATCC HTB-38), cervical adenocarcinoma cells HeLa (ATCC CRM-CCL2), and osteosarcoma MG63 (ATCC CRL-1427). The cells were maintained in Dulbeco’s Modified Medium (DMEM): F12 (Thermo Fisher Scientific, Waltham, MA, USA) supplemented with 10% fetal bovine serum (FBS, Thermo Fisher Scientific, Waltham, MA, USA). For the in vitro evaluation of their cytotoxicity, the new derivatives were solubilized in DMSO at a concentration of 10 mg/mL and filtered with 0.22 µm Millex-GV Filter (Merck, Darmstadt, Germany). For cytotoxicity kinetics, the IncuCyte® S3 Live-Cell Analysis System (Sartorius, AG, Goettingen, Germany) was used. Briefly, 2 × 10^4 cells seeded in 96 well plates were treated with the new derivatives in a concentration ranging between 500 μg/mL and 3.9 μg/mL. The plates were placed in the IncuCyte® S3 Live-Cell Analysis System, and five images per well were taken every six h over a 72-h period and then processed, according to kit recommendations.

S. aureus ATCC 25923 [3] = experiment: Anti-biofilm activity assay, purple violet microtiter method; type: cell-based, Staphylococcus aureus; conditions: S. aureus ATCC 25923 biofilm
Procedure: (§1) The inhibitory activity of the obtained compounds has been assessed on five microbial strains, respectively: E. coli ATCC 25922, P. aeruginosa ATCC 27853, S. aureus ATCC 25923, E. faecalis ATCC 29212 and C. albicans ATCC 90029, in a planktonic and adherent growth state.
(§2) The anti-biofilm activity assay was performed by the purple violet microtiter method, as previously described, allowing us to determine the minimal biofilm inhibitory concentration (MBEC). The same range of concentrations, as in the MIC assay, i.e., from 5 to 0.009 mg/mL has been tested.

E. coli ATCC 25922 [4] = experiment: as above; type: cell-based, Escherichia coli; conditions: E. coli ATCC 25922 biofilm
Procedure: as §1, §2

P. aeruginosa ATCC 27853 [5] = experiment: as above; type: cell-based, Pseudomonas aeruginosa; conditions: P. aeruginosa ATCC 27853 biofilm
Procedure: as §1, §2

E. coli ATCC 25922 [6] = experiment: MIC assay, serial two-fold microdilution in liquid medium; type: cell-based; conditions: Escherichia coli, ATCC25922; E. coli ATCC 25922, planktonic, 37 °C, 24 h; read-out: minimum inhibitory concentration (MIC)
Procedure: as §1
(§3) The MIC assay was performed by the serial two-fold microdilutions in a liquid medium, using a concentration range from 5 to 0.009 mg/mL and microbial suspensions of 0.5 MacFarland density. The wells containing only the microbial culture served as positive control and those containing the sterile culture medium as the negative control. The MIC values were read after incubation at 37 °C for 24 h.

P. aeruginosa ATCC 27853 [7] = experiment: as above; type: cell-based; conditions: Pseudomonas aeruginosa, ATCC27853; P. aeruginosa ATCC 27853, planktonic, 37 °C, 24 h; read-out: minimum inhibitory concentration (MIC)
Procedure: as §1, §3

S. aureus ATCC 25923 [8] = experiment: as above; type: cell-based; conditions: Staphylococcus aureus, ATCC25923; S. aureus ATCC 25923, planktonic, 37 °C, 24 h; read-out: minimum inhibitory concentration (MIC)
Procedure: as §1, §3

E. faecalis ATCC 29212 [9] = experiment: as above; type: cell-based; conditions: Enterococcus faecalis, ATCC29212; E. faecalis ATCC 29212, planktonic, 37 °C, 24 h; read-out: minimum inhibitory concentration (MIC)
Procedure: as §1, §3

E. coli ATCC 25922 [10] = experiment: MBC assay, plating on solid medium after MIC reading; type: cell-based; conditions: Escherichia coli, ATCC25922, read-out: minimum bactericidal concentration (MBC)
Procedure: as §1
(§4) The MB assay was performed after reading the MIC values.

P. aeruginosa ATCC 27853 [11] = experiment: as above; type: cell-based; conditions: Pseudomonas aeruginosa, ATCC27853, read-out: minimum bactericidal concentration (MBC)
Procedure: as §1, §4

C. albicans ATCC 90029 [12] = experiment: as above; type: cell-based; conditions: Candida albicans, ATCC90029, read-out: minimum bactericidal concentration (MBC)
Procedure: as §1, §4

S. aureus ATCC 25923 [13] = experiment: as above; type: cell-based; conditions: Staphylococcus aureus, ATCC25923, read-out: minimum bactericidal concentration (MBC)
Procedure: as §1, §4

E. faecalis ATCC 29212 [14] = experiment: as above; type: cell-based; conditions: Enterococcus faecalis, ATCC29212, read-out: minimum bactericidal concentration (MBC)
Procedure: as §1, §4

C. albicans ATCC 90029 [15] = experiment: Anti-biofilm activity assay, purple violet microtiter method; type: cell-based, Candida albicans; conditions: C. albicans ATCC 90029 biofilm
Procedure: as §1, §2

[16] = subinhibitory concentration tested 2.5 mg/mL
[17] = HT29 cells (colorectal adenocarcinoma), HT29, phase confluence (%)
[18] = HeLa cells (cervical adenocarcinoma), phase confluence (%)
[19] = MG63 cells (osteosarcoma), MG63, phase confluence (%)
[20] = subinhibitory concentration tested 1.25 mg/mL

| Compound | staining index value (SI) (E. faecalis ATCC 29212 [1]; [16]) | IC50 at 72 h [2, 17] [µg/mL] | IC50 at 72 h [2, 18] [µg/mL] | IC50 at 72 h [2, 19] [µg/mL] | minimum biofilm inhibitory concentration (MBIC) (S. aureus ATCC 25923 [3]) [mg/mL] | minimum biofilm inhibitory concentration (MBIC) (E. coli ATCC 25922 [4]) [mg/mL] | minimum biofilm inhibitory concentration (MBIC) (P. aeruginosa ATCC 27853 [5]) [mg/mL] | MIC (E. coli ATCC 25922 [6]) [µg/mL] | MIC (P. aeruginosa ATCC 27853 [7]) [µg/mL] | MIC (S. aureus ATCC 25923 [8]) [µg/mL] | MIC (E. faecalis ATCC 29212 [9]) [µg/mL] | MBC (E. coli ATCC 25922 [10]) [µg/mL] | MBC (P. aeruginosa ATCC 27853 [11]) [µg/mL] | MBC (C. albicans ATCC 90029 [12]) [µg/mL] | MBC (S. aureus ATCC 25923 [13]) [µg/mL] | MBC (E. faecalis ATCC 29212 [14]) [µg/mL] | minimum biofilm inhibitory concentration (MBIC) (C. albicans ATCC 90029 [15]) [mg/mL] | changes in the membrane potential (E. faecalis ATCC 29212 [1]; E. faecalis ATCC 29212, subinhibitory concentration) | staining index value (SI) (E. faecalis ATCC 29212 [1]; [20]) |
| --- | --- | --- | --- | --- | --- | --- | --- | --- | --- | --- | --- | --- | --- | --- | --- | --- | --- | --- | --- |
| O=C(Nc1ccccc1)ON=C1c2ccccc2-c2ccccc21 [Compound 1a, 9-(phenylcarbamoyloxymino)fluoren] | 2.21 | 11 ± 0.75 (≈ 0.035 mM) | 7.52 ± 1.39 (≈ 0.0239 mM) | 31.5 (≈ 0.1 mM) | 5 | 0.625 | 0.009 | 2500 (≈ 7.95 mM) | 2500 (≈ 7.95 mM) | 2500 (≈ 7.95 mM) | 2500 (≈ 7.95 mM) | 2500 (≈ 7.95 mM) | 2500 (≈ 7.95 mM) | 5000 (≈ 15.9 mM) | 5000 (≈ 15.9 mM) | 5000 (≈ 15.9 mM) | 0.312 |  |  |
| Cc1cccc(NC(=O)ON=C2c3ccccc3-c3ccccc32)c1 [Compound 1b, 9-((3-methyl-phenyl)carbamoyloximino)fluoren] | 3.99 | 6.33 ± 3.02 (≈ 0.0193 mM) | 8.5 ± 2.26 (≈ 0.0259 mM) | 22 ± 2.48 (≈ 0.067 mM) | 2.5 | 0.078 | 0.156 | 5000 (≈ 15.2 mM) | 2500 (≈ 7.61 mM) | 2500 (≈ 7.61 mM) | 10000 (≈ 30.5 mM) | 5000 (≈ 15.2 mM) | 2500 (≈ 7.61 mM) | 10000 (≈ 30.5 mM) | 5000 (≈ 15.2 mM) | 10000 (≈ 30.5 mM) | 0.078 |  |  |
| O=C(Nc1cccc(Cl)c1)ON=C1c2ccccc2-c2ccccc21 [Compound 1c, 9-((3-chloro-phenyl)carbamoyloxymino)fluoren] |  | 10.8 ± 1.36 (≈ 0.031 mM) | 8.9 ± 2.56 (≈ 0.0255 mM) | 22.8 ± 0.78 (≈ 0.0654 mM) | 5 | 1.25 | 1.25 | 2500 (≈ 7.17 mM) | 2500 (≈ 7.17 mM) | 2500 (≈ 7.17 mM) | 5000 (≈ 14.3 mM) | 5000 (≈ 14.3 mM) | 2500 (≈ 7.17 mM) | 10000 (≈ 28.7 mM) | 5000 (≈ 14.3 mM) | 5000 (≈ 14.3 mM) | 0.312 | did not cause changes | 0.32 |
| O=C(Nc1ccc(Cl)c(Cl)c1)ON=C1c2ccccc2-c2ccccc21 [Compound 1d, 9-((3,4-dichloro-phenyl)carbamoyloxymino)fluoren] |  | 8.17 ± 2.98 (≈ 0.0213 mM) | 7.59 ± 3.64 (≈ 0.0198 mM) | 26.3 ± 0.92 (≈ 0.0686 mM) | 0.019 | 0.625 | 1.25 | 5000 (≈ 13 mM) | 2500 (≈ 6.52 mM) | 156 (≈ 0.407 mM) | 5000 (≈ 13 mM) | 5000 (≈ 13 mM) | 2500 (≈ 6.52 mM) | 10000 (≈ 26.1 mM) | 312 (≈ 0.814 mM) | 5000 (≈ 13 mM) | 0.312 |  | 44.54 |
